The source of these data is patent US10130633B2, “Compounds” (BAYER PHARMA AKTIENGESELLSCHAFT, priority 2013, dated 2018).

Data set [1] has as its system constitutive active colorectal cancer cell (CRC) Wnt pathway. Description: HCT116 TOPFlash cellular reporter assay (Super TopFlash luciferase), constitutive active Wnt pathway. The note with it: for IC50: HCT116 TOP reporter cells, 36 hours incubation, luciferase expression. It is filed as cell-based. The protocol:
In order to discover and characterize small molecules which inhibit the constitutive active colorectal cancer cell (CRC) Wnt pathway, a cellular reporter assay was employed. […] Stable transfectants were generated by cotransfection with pcDNA3 and selection of stable transfected cells with 1 mg/ml G418.

The nature of data set [2]: Solubility in buffer / aqueous media. In kind it is physicochemical. Particulars: pH 6.5, aqueous buffer; buffer at pH6.5. The text has this: Some of the compounds of general formula (I) show low solubility in aqueous media and organic solvents. This can affect the possibility to assess the activity of such compounds with the described assays. […] Therefore, the high IC50 value of the compound might be a result of the low solubility.

In data set [3] the test system is HEK293 FOP control reporter cell line. As to the kind of experiment: HEK293 FOP control reporter assay. The note with it: read-out: HEK FOP IC50. It is filed as cell-based, human. Background: In a reporter assay the amount or activity of a reporter protein is the signal.
For data set [4], the system named is HCT116 FOP control reporter cell line. As to the kind of experiment: HCT116 FOPFlash control reporter assay (FOP control vector, non-functional TCF elements). In kind it is cell-based. Particulars: HCT116 FOP control reporter cells, 36 hours incubation, luciferase expression. The text has this: In a parallel approach, HCT116 cells were cotransfected with the FOP control vector and pcDNA3. The FOP vector is identical to the TOP construct, but it contains instead of functional TCF elements a randomized, non-functional sequence. For this transfection a stable transfected cell line was generated as well.

Data set [5] concerns wildtype Wnt pathway. As to the kind of experiment: HEK293 TOP reporter assay, wildtype Wnt pathway stimulated with Wnt-3a. In kind it is cell-based, human. The note with it: read-out: HEK TOP OncoFlash IC50. The protocol:
Measurement of luciferase expression was done as described for the constitutive active Wnt assay.
In order to discover and characterize small molecules which inhibit the wildtype Wnt pathway, a cellular reporter assay was employed. […] Stable transfectants were generated by selection with 300 μg/ml Hygromycin.

Where “and” joins values, the source holds several entries; their conditions need not be identical. Equal entries are not always repeated. Where two headings read alike, the source gives them in different places.

By solubility is commonly meant the dissolved amount per volume that the medium holds. Higher therefore signals much dissolved substance. As usually defined, the IC50 is the midpoint of a concentration-inhibition curve.

As to `COc1ccc(C(=O)Nc2nnc(-c3ccccc3)s2)cc1NC(=O)CN1CCOCC1` [4-methoxy-3-[(morpholin-4-ylacetyl)amino]-N-(5-phenyl-1,3,4-thiadiazol-2-yl)benzamide], the “IC50 value in the HCT116 TOPFlash assay (in words)” value in data set [1] (might be a result of the low solubility) is reported as “higher than expected”. Further, the solubility in data set [2] was < 0.1 µg/mL and < 0.22 µM.
Turning to `COc1ccc(C(=O)Nc2ccc(-c3ccccc3)nc2)cc1NC(=O)C1(N2CCOCC2)CC1` [Example 81, 4-methoxy-3-({[1-(morpholin-4-yl)cyclopropyl]carbonyl}amino)-N-(6-phenylpyridin-3-yl)benzamide], the IC50 was 23.1 nM in data set [1] (Homo sapiens, HCT-116, 36 h); at least 50000 nM in data set [3] (Homo sapiens, HEK293, 16 h); at least 50000 nM in data set [4] (Homo sapiens, HCT-116, 36 h); 15 nM in data set [5] (Homo sapiens, HEK293, 16 h).
In the case of `COC(=O)c1ccc(C(=O)Nc2nnc(-c3ccccc3)s2)cc1NC(=O)CN1CCN(C)CC1` [Example 105, methyl 2-{[(4-methylpiperazin-1-yl)acetyl]amino}-4-[(5-phenyl-1,3,4-thiadiazol-2-yl)carbamoyl]benzoate], the IC50 in data set [1] (Homo sapiens, HCT-116, 36 h) was 64 nM; in data set [3] (Homo sapiens, HEK293, 16 h), at least 50000 nM; in data set [4] (Homo sapiens, HCT-116, 36 h) it was at least 50000 nM; in data set [5] (Homo sapiens, HEK293, 16 h), 300 nM.
`Nc1ccc(-c2ccc(NC(=O)c3ccc(OC(F)(F)F)c(NC(=O)CN4CCOCC4)c3)cn2)cc1` [Example 126, N-[6-(4-aminophenyl)pyridin-3-yl]-3-[(morpholin-4-ylacetyl)amino]-4-(trifluoromethoxy)benzamide]: the half-maximal inhibitory concentration (IC50) in data set [1] (Homo sapiens, HCT-116, 36 h) was 52.5 nM; in data set [3] (Homo sapiens, HEK293, 16 h) it was at least 50000 nM; in data set [4] (Homo sapiens, HCT-116, 36 h), at least 50000 nM; in data set [5] (Homo sapiens, HEK293, 16 h), 36 nM.
`CN1CCN(CC(=O)Nc2cc(C(=O)Nc3ccc(-c4ccccc4)cn3)ccc2OC(F)(F)F)CC1` [Example 132, 3-{[(4-methylpiperazin-1-yl)acetyl]amino}-N-(5-phenylpyridin-2-yl)-4-(trifluoromethoxy)benzamide formiate]: the IC50 in data set [1] came to 35.5 nM; in data set [3] (HEK293 FOP control cells, EC50 concentration of recombinant Wnt-3a, 16 hours), 11000 nM; in data set [4], 20000 nM; in data set [5] (HEK293 TOP cells, EC50 concentration of recombinant Wnt-3a, 16 hours), 70 nM.
Consider `O=C(CN1CCOCC1)Nc1cc(C(=O)Nc2ccc(-c3ccccc3F)nc2)ccc1OC1CC1` [Example 133, 4-(cyclopropyloxy)-N-[6-(2-fluorophenyl)pyridin-3-yl]-3-[(morpholin-4-ylacetyl)amino]benzamide], for which the IC50 in data set [1] (Homo sapiens, HCT-116, 36 h) is 54.6 nM; in data set [3] (Homo sapiens, HEK293, 16 h), at least 50000 nM; in data set [4] (Homo sapiens, HCT-116, 36 h) it was at least 50000 nM; in data set [5] (Homo sapiens, HEK293, 16 h) it was 130 nM.
`O=C(Nc1ccc(-c2ccccc2F)nc1)c1ccc(OC2CC2)c(NC(=O)C2(N3CCOCC3)CC2)c1` [Example 134, 4-(cyclopropyloxy)-N-[6-(2-fluorophenyl)pyridin-3-yl]-3-({[1-(morpholin-4-yl)cyclopropyl]carbonyl}amino)benzamide]: the IC50 in data set [1] (Homo sapiens, HCT-116, 36 h) is 16.6 nM; in data set [3] (Homo sapiens, HEK293, 16 h) it was 12000 nM; in data set [4] (Homo sapiens, HCT-116, 36 h), 5200 nM; in data set [5] (Homo sapiens, HEK293, 16 h), 31 nM.
On the same counts, the results for `O=C(Nc1nnc(-c2ccccc2)s1)c1ccc(OC2CC2)c(NC(=O)C2(N3CCOCC3)CC2)c1` [Example 159, 4-(cyclopropyloxy)-3-({[1-(morpholin-4-yl)cyclopropyl]carbonyl}amino)-N-(5-phenyl-1,3,4-thiadiazol-2-yl)benzamide] are 41.4 nM, at least 50000 nM, at least 50000 nM and 54 nM.
